The NIST ThermoML archive (doi:10.1021/je500381c)
± gives the expanded uncertainty stated by the source.

Test: xn = mol fraction of the nth substance listed
Details: for mass density / viscosity: 100 kPa, Liquid; for mass density: Vibrating tube method; for surface tension liquid-gas: Drop volume

OCC1CCCCC1 [cyclohexylmethanol] + CC12CC3CC(C1)CC(C)(C3)C2
Details | mass density [kg/m3] | surface tension liquid-gas [mN/m] | viscosity [mPa·s]
293.15 K, x1 = 0.1027 | 903.21 ± 0.12 | – | 4.113 ± 0.064
293.15 K, x1 = 0.1995 | 905.07 ± 0.12 | – | 4.718 ± 0.073
293.15 K, x1 = 0.3012 | 907.15 ± 0.12 | – | 5.602 ± 0.087
293.15 K, x1 = 0.4004 | 909.76 ± 0.12 | – | 6.901 ± 0.11
293.15 K, x1 = 0.4973 | 912.51 ± 0.12 | – | 8.435 ± 0.13
293.15 K, x1 = 0.6008 | 915.54 ± 0.12 | – | 11.2 ± 0.17
293.15 K, x1 = 0.7002 | 918.7 ± 0.12 | – | 14.93 ± 0.23
293.15 K, x1 = 0.7892 | 922.49 ± 0.12 | – | 21.14 ± 0.33
293.15 K, x1 = 0.9 | 925.92 ± 0.13 | – | 28.69 ± 0.45
293.15 K, x1 = 1 | 929.76 ± 0.13 | – | 37.75 ± 0.59
298.15 K, x1 = 0.1002 | – | 28.2 ± 0.16 | –
298.15 K, x1 = 0.1027 | 899.59 ± 0.12 | – | 3.615 ± 0.056
298.15 K, x1 = 0.1995 | 901.44 ± 0.12 | 28.36 ± 0.16 | 4.111 ± 0.064
298.15 K, x1 = 0.2996 | – | 28.56 ± 0.16 | –
298.15 K, x1 = 0.3012 | 903.51 ± 0.12 | – | 4.827 ± 0.075
298.15 K, x1 = 0.4004 | 906.13 ± 0.12 | 28.74 ± 0.16 | 5.842 ± 0.091
298.15 K, x1 = 0.4973 | 908.85 ± 0.12 | 28.95 ± 0.16 | 7.114 ± 0.11
298.15 K, x1 = 0.6008 | 911.97 ± 0.12 | 29.35 ± 0.16 | 9.121 ± 0.14
298.15 K, x1 = 0.7002 | 915.07 ± 0.12 | 29.83 ± 0.17 | 11.9 ± 0.19
298.15 K, x1 = 0.7892 | 918.88 ± 0.13 | – | 16.63 ± 0.26
298.15 K, x1 = 0.7999 | – | 30.46 ± 0.17 | –
298.15 K, x1 = 0.9 | 922.36 ± 0.13 | 31.33 ± 0.17 | 22.11 ± 0.35
298.15 K, x1 = 1 | 926.25 ± 0.13 | 32.43 ± 0.18 | 28.67 ± 0.45
303.15 K, x1 = 0.1027 | 895.96 ± 0.12 | – | 3.204 ± 0.05
303.15 K, x1 = 0.1995 | 897.78 ± 0.12 | – | 3.618 ± 0.056
303.15 K, x1 = 0.3012 | 899.85 ± 0.12 | – | 4.192 ± 0.065
303.15 K, x1 = 0.4004 | 902.45 ± 0.12 | – | 5.005 ± 0.078
303.15 K, x1 = 0.4973 | 905.16 ± 0.12 | – | 5.993 ± 0.093
303.15 K, x1 = 0.6008 | 908.3 ± 0.12 | – | 7.528 ± 0.12
303.15 K, x1 = 0.7002 | 911.44 ± 0.13 | – | 9.63 ± 0.15
303.15 K, x1 = 0.7892 | 915.23 ± 0.13 | – | 13.35 ± 0.21
303.15 K, x1 = 0.9 | 918.75 ± 0.13 | – | 17.36 ± 0.27
303.15 K, x1 = 1 | 922.71 ± 0.13 | – | 22.34 ± 0.35
308.15 K, x1 = 0.1027 | 892.31 ± 0.12 | – | 2.857 ± 0.044
308.15 K, x1 = 0.1995 | 894.11 ± 0.12 | – | 3.194 ± 0.05
308.15 K, x1 = 0.3012 | 896.17 ± 0.12 | – | 3.666 ± 0.057
308.15 K, x1 = 0.4004 | 898.75 ± 0.12 | – | 4.326 ± 0.067
308.15 K, x1 = 0.4973 | 901.46 ± 0.12 | – | 5.097 ± 0.079
308.15 K, x1 = 0.6008 | 904.6 ± 0.13 | – | 6.204 ± 0.097
308.15 K, x1 = 0.7002 | 907.77 ± 0.13 | – | 7.907 ± 0.12
308.15 K, x1 = 0.7892 | 911.57 ± 0.13 | – | 10.82 ± 0.17
308.15 K, x1 = 0.9 | 915.12 ± 0.13 | – | 13.92 ± 0.22
308.15 K, x1 = 1 | 919.14 ± 0.13 | – | 17.57 ± 0.28
313.15 K, x1 = 0.1027 | 888.65 ± 0.12 | – | 2.56 ± 0.04
313.15 K, x1 = 0.1995 | 890.42 ± 0.12 | – | 2.841 ± 0.044
313.15 K, x1 = 0.3012 | 892.47 ± 0.12 | – | 3.229 ± 0.05
313.15 K, x1 = 0.4004 | 895.03 ± 0.12 | – | 3.764 ± 0.059
313.15 K, x1 = 0.4973 | 897.73 ± 0.13 | – | 4.377 ± 0.068
313.15 K, x1 = 0.6008 | 900.87 ± 0.13 | – | 5.311 ± 0.083
313.15 K, x1 = 0.7002 | 904.09 ± 0.13 | – | 6.578 ± 0.1
313.15 K, x1 = 0.7892 | 907.87 ± 0.13 | – | 8.883 ± 0.14
313.15 K, x1 = 0.9 | 911.45 ± 0.13 | – | 11.3 ± 0.18
313.15 K, x1 = 1 | 915.53 ± 0.13 | – | 14.09 ± 0.22
318.15 K, x1 = 0.1027 | 884.98 ± 0.12 | – | 2.305 ± 0.036
318.15 K, x1 = 0.1995 | 886.71 ± 0.12 | – | 2.539 ± 0.04
318.15 K, x1 = 0.3012 | 888.75 ± 0.12 | – | 2.859 ± 0.045
318.15 K, x1 = 0.4004 | 891.29 ± 0.13 | – | 3.299 ± 0.051
318.15 K, x1 = 0.4973 | 893.98 ± 0.13 | – | 3.787 ± 0.059
318.15 K, x1 = 0.6008 | 897.11 ± 0.13 | – | 4.529 ± 0.071
318.15 K, x1 = 0.7002 | 900.37 ± 0.13 | – | 5.508 ± 0.086
318.15 K, x1 = 0.7892 | 904.14 ± 0.13 | – | 7.34 ± 0.12
318.15 K, x1 = 0.9 | 907.74 ± 0.13 | – | 9.262 ± 0.14
318.15 K, x1 = 1 | 911.88 ± 0.13 | – | 11.43 ± 0.18
323.15 K, x1 = 0.1027 | 881.29 ± 0.12 | – | 2.085 ± 0.033
323.15 K, x1 = 0.1995 | 882.99 ± 0.13 | – | 2.28 ± 0.036
323.15 K, x1 = 0.3012 | 885.01 ± 0.13 | – | 2.546 ± 0.04
323.15 K, x1 = 0.4004 | 887.53 ± 0.13 | – | 2.911 ± 0.045
323.15 K, x1 = 0.4973 | 890.21 ± 0.13 | – | 3.302 ± 0.052
323.15 K, x1 = 0.6008 | 893.33 ± 0.13 | – | 3.896 ± 0.061
323.15 K, x1 = 0.7002 | 896.61 ± 0.13 | – | 4.604 ± 0.072
323.15 K, x1 = 0.7892 | 900.37 ± 0.13 | – | 6.145 ± 0.096
323.15 K, x1 = 0.9 | 904 ± 0.13 | – | 7.642 ± 0.12
323.15 K, x1 = 1 | 908.19 ± 0.13 | – | 9.354 ± 0.15
328.15 K, x1 = 0.1027 | 877.59 ± 0.13 | – | 1.894 ± 0.03
328.15 K, x1 = 0.1995 | 879.24 ± 0.13 | – | 2.057 ± 0.032
328.15 K, x1 = 0.3012 | 881.25 ± 0.13 | – | 2.279 ± 0.036
328.15 K, x1 = 0.4004 | 883.75 ± 0.13 | – | 2.58 ± 0.04
328.15 K, x1 = 0.4973 | 886.41 ± 0.13 | – | 2.898 ± 0.045
328.15 K, x1 = 0.6008 | 889.51 ± 0.13 | – | 3.375 ± 0.053
328.15 K, x1 = 0.7002 | 892.81 ± 0.13 | – | 3.992 ± 0.062
328.15 K, x1 = 0.7892 | 896.56 ± 0.13 | – | 5.076 ± 0.079
328.15 K, x1 = 0.9 | 900.21 ± 0.13 | – | 6.342 ± 0.099
328.15 K, x1 = 1 | 904.45 ± 0.13 | – | 7.766 ± 0.12
333.15 K, x1 = 0.1027 | 873.88 ± 0.13 | – | 1.727 ± 0.027
333.15 K, x1 = 0.1995 | 875.48 ± 0.13 | – | 2.105 ± 0.033
333.15 K, x1 = 0.3012 | 877.47 ± 0.13 | – | 2.048 ± 0.032
333.15 K, x1 = 0.4004 | 879.94 ± 0.13 | – | 2.3 ± 0.036
333.15 K, x1 = 0.4973 | 882.58 ± 0.13 | – | 2.56 ± 0.04
333.15 K, x1 = 0.6008 | 885.67 ± 0.13 | – | 2.946 ± 0.046
333.15 K, x1 = 0.7002 | 888.98 ± 0.13 | – | 3.443 ± 0.054
333.15 K, x1 = 0.7892 | 892.71 ± 0.13 | – | 4.253 ± 0.067
333.15 K, x1 = 0.9 | 896.38 ± 0.13 | – | 5.984 ± 0.094
333.15 K, x1 = 1 | 900.67 ± 0.13 | – | 6.462 ± 0.1
